Results from publication PMC6370294 (Journal of biological inorganic chemistry : JBIC : a …, 2018).
pKd: −log10 of the molar value.

Assays:
5G-XoxF = molecular target: T1, 5G-XoxF (Methylotuvimicrobium buryatense, UniProt A0A3F2YLY8); test: DCPIP dye-linked dehydrogenase assay, A600; type: biochemical; conditions: PMS mediator, DCPIP acceptor; La(III) enzyme; 30 °C; 1.5 μM enzyme
T1 sequence (A0A3F2YLY8 27-617): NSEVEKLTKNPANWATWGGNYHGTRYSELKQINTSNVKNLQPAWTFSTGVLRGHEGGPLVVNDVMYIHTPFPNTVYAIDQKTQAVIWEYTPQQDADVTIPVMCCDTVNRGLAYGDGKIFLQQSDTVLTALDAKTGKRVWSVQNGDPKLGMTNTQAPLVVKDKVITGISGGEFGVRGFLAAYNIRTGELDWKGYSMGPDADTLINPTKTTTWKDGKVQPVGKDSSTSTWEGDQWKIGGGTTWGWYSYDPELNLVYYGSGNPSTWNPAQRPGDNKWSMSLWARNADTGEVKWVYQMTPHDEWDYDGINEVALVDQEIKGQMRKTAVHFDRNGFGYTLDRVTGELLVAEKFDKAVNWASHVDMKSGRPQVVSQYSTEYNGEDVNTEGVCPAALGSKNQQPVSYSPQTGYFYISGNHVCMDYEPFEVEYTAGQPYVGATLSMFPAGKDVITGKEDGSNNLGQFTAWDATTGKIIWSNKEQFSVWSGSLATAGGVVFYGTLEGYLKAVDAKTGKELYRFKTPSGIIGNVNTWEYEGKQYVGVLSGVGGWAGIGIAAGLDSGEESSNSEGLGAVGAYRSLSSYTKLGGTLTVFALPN

[1] = molecular target: XoxF from Methylomicrobium buryatense 5GB1C (Methylomicrobium buryatense 5GB1C); test: BLI

Molecule | specific activity (5G-XoxF) | pKd [1]
CO [methanol] | Purified 5G-XoxF exhibits methanol oxidation activity | –
particulate methane monooxygenase from Methylomicrobium buryatense 5GB1C (complex) | – | 4.30
